Experimental data published in the supplement of paper PMC11061612.

How the values were obtained:
[1] = compound: CN(CC[C@H](CSC1=CC=CC=C1)NC2=C(C=C(C=C2)S(=O)(=O)NC(=O)C3=CC=C(C=C3)N4CCC(CC4)[C@H](C5=CC=CC=C5C6=CC=C(C=C6)Cl)O)S(=O)(=O)C(F)(F)F)CCO [AZD4320]; conditions: max 1 µM
Method in brief: (§1)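 Following 24 hours at 37°C and 5% CO2, cancer cell lines in 1536-well plates with 7.5 μl DMEM/F12 or RPMI and 10% FBS were dosed for 72 hours, final DMSO typically being 0.2%. CellTiter-Glo 2.0 luminescence, scaled between blank-well and DMSO-well means, gave the viability readout. Dose responses were fitted to a two-parameter logistic curve with a non-linear mixed effects model, and the single-agent IC50 was derived from this fit.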

[2] = compound: C[C@@H](c1ccc2nccn2c1)n1nnc2ncc(-c3cnn(C)c3)nc21 [Savolitinib]; conditions: max 1 µM
Method in brief: as §1

[3] = compound: CCN(CCO)CCCOc1ccc2c(Nc3cc(CC(=O)Nc4cccc(F)c4)[nH]n3)ncnc2c1 [AZD2811]; conditions: max 1 µM
Method in brief: as §1

[4] = compound: COc1cccc(OCCCN)c1-c1cc(Nc2cnc(C#N)cn2)n[nH]1 [Prexasertib]; conditions: max 1 µM
Method in brief: as §1

[5] = compound: C[C@@H](Nc1cc(F)cc(F)c1)c1cc(C(=O)N(C)C)cc2c(=O)cc(N3CCOCC3)oc12 [AZD8186]; conditions: max 3 µM
Method in brief: as §1

[6] = compound: CC(=O)Nc1cccc(-n2c(=O)n(C3CC3)c(=O)c3c(Nc4ccc(I)cc4F)n(C)c(=O)c(C)c32)c1 [Trametinib]; conditions: max 1 µM
Method in brief: as §1

[7] = compound: CC1=C(C(=CC=C1)Cl)NC(=O)C2=CN=C(S2)NC3=CC(=NC(=N3)C)N4CCN(CC4)CCO [Dasatinib]; conditions: max 2 µM
Method in brief: as §1

[8] = compound: C=CCn1c(=O)c2cnc(Nc3ccc(N4CCN(C)CC4)cc3)nc2n1-c1cccc(C(C)(C)O)n1 [AZD1775]
Method in brief: as §1

[9] = compound: O=C(c1cc(Cc2n[nH]c(=O)c3ccccc23)ccc1F)N1CCN(C(=O)C2CC2)CC1 [Olaparib]; conditions: max 10 µM
Method in brief: as §1

[10] = compound: CS(=O)(=O)CCNCc1ccc(-c2ccc3ncnc(Nc4ccc(OCc5cccc(F)c5)c(Cl)c4)c3c2)o1 [Lapatinib]; conditions: max 10 µM
Method in brief: as §1

[11] = compound: C[C@@H]1COCCN1C2=NC(=NC(=C2)C3(CC3)[S@](=N)(=O)C)C4=C5C=CNC5=NC=C4 [AZD6738]; conditions: max 10 µM
Method in brief: as §1

[12] = compound: C1CN(CCC1(C(=O)N[C@@H](CCO)C2=CC=C(C=C2)Cl)N)C3=NC=NC4=C3C=CN4 [Capivasertib]
Method in brief: as §1

[13] = compound: COc1cc(Nc2ncc3c(n2)-c2ccc(Cl)cc2C(c2c(F)cccc2OC)=NC3)ccc1C(=O)O [Alisertib]; conditions: max 10 µM
Method in brief: as §1

[14] = compound: Cc1cc2ncnn2cc1Nc1ncc2c(n1)n(C1CCOCC1)c(=O)n2C [AZD7648]; conditions: max 10 µM
Method in brief: as §1

[15] = compound: Cc1nc(-c2cn3c(n2)-c2ccc(-c4cnn(C(C)(C)C(N)=O)c4)cc2OCC3)n(C(C)C)n1 [Taselisib]; conditions: max 10 µM
Method in brief: as §1

[16] = compound: Cn1cnc2c(F)c(Nc3ccc(Br)cc3Cl)c(C(=O)NOCCO)cc21 [Selumetinib]
Method in brief: as §1

[17] = compound: COc1nnc2ccc(N3CCC(c4ccc(OCCN5CCN(C)C(=O)[C@H]5C)cc4)CC3)nn12 [AZD5153]; conditions: max 1 µM
Method in brief: as §1

[18] = compound: COc1cccc2c1C(=O)c1c(O)c3c(c(O)c1C2=O)C[C@@](O)(C(=O)CO)C[C@@H]3O[C@H]1C[C@H](N)[C@H](O)[C@H](C)O1 [Doxorubicin]; conditions: max 1 µM
Method in brief: as §1

[19] = compound: CC1=CN2[C@@H](C1)C=NC3=CC(=C(C=C3C2=O)OC)OCCCCCOC4=C(C=C5C(=C4)N=C[C@@H]6CC(=CN6C5=O)C)OC [SG3199]; conditions: max 0.001 µM
Method in brief: as §1

[20] = compound: CC(=O)c1c(C)c2cnc(Nc3ccc(N4CCNCC4)cn3)nc2n(C2CCCC2)c1=O [Palbociclib]; conditions: max 10 µM
Method in brief: as §1

[21] = compound: COc1cc2ncnc(Nc3ccc(F)c(Cl)c3)c2cc1OCCCN1CCOCC1 [Gefitinib]; conditions: max 10 µM
Method in brief: as §1

[22] = compound: CN(C)CCCOc1ccc(-c2ccc3ncc4c(c3c2)n(C2CCOCC2)c(=O)n4C)cn1 [AZD0156]
Method in brief: as §1

[23] = compound: Cc1c2c(nn1C)CSCc1cc(n(C)n1)CSc1cc(c3ccccc3c1)OCCCc1c(C(=O)O)n(C)c3c-2c(Cl)ccc13 [AZD5991]; conditions: max 1 µM
Method in brief: as §1

[24] = compound: CCc1c2c(nc3ccc(O)cc13)-c1cc3c(c(=O)n1C2)COC(=O)[C@]3(O)CC [SN-38]; conditions: max 0.3 µM
Method in brief: as §1

[25] = compound: CC1(C)CCC(CN2CCN(c3ccc(C(=O)NS(=O)(=O)c4ccc(NCC5CCOCC5)c([N+](=O)[O-])c4)c(Oc4cnc5[nH]ccc5c4)c3)CC2)=C(c2ccc(Cl)cc2)C1 [Venetoclax]; conditions: max 1 µM
Method in brief: as §1

[26] = compound: C[C@@H](Oc1cc(-c2cnn(C3CCNCC3)c2)cnc1N)c1c(Cl)ccc(F)c1Cl [Crizotinib]; conditions: max 10 µM
Method in brief: as §1

[27] = compound: CC(C)n1c(=O)n(C)c2cnc3cc(F)c(-c4ccc(OCCCN5CCCCC5)nc4)cc3c21 [AZD1390]; conditions: max 0.3 µM
Method in brief: as §1

Row | Cell Line | IC50, cell viability 72 h [1] | IC50, cell viability 72 h [2] | IC50, cell viability 72 h [3] | IC50, cell viability 72 h [4] | IC50, cell viability 72 h [5] | IC50, cell viability 72 h [6] | IC50, cell viability 72 h [7] | IC50, cell viability 72 h ([8]; max 3 µM) | IC50, cell viability 72 h [9] | IC50, cell viability 72 h [10] | IC50, cell viability 72 h [11] | IC50, cell viability 72 h ([12]; max 10 µM) | IC50, cell viability 72 h [13] | IC50, cell viability 72 h [14] | IC50, cell viability 72 h [15] | IC50, cell viability 72 h ([16]; max 10 µM) | IC50, cell viability 72 h [17] | IC50, cell viability 72 h [18] | IC50, cell viability 72 h [19] | IC50, cell viability 72 h [20] | IC50, cell viability 72 h [21] | IC50, cell viability 72 h ([22]; max 3 µM) | IC50, cell viability 72 h [23] | IC50, cell viability 72 h [24] | IC50, cell viability 72 h [25] | IC50, cell viability 72 h [26] | IC50, cell viability 72 h [27] | IC50, cell viability 72 h ([8]; max 1 µM) | IC50, cell viability 72 h ([12]; max 3 µM) | IC50, cell viability 72 h ([16]; max 3 µM) | IC50, cell viability 72 h ([22]; max 1 µM)
1 | JIMT-1 (Breast Carcinoma) | > 1000 nM | > 1000 nM | > 1000 nM | 85.1 nM | > 3000 nM | > 1000 nM | 1080 nM | 1080 nM | > 10000 nM | > 10000 nM | 5640 nM | > 10000 nM | > 10000 nM | > 10000 nM | 4290 nM | > 10000 nM | > 1000 nM | > 1000 nM | > 1 nM | > 10000 nM | > 10000 nM | > 3000 nM | > 1000 nM | > 300 nM | > 1000 nM | > 10000 nM | > 300 nM |  |  |  | 
2 | TE-10 (Esophageal Squamous Cell Carcinoma) | > 1000 nM |  | > 1000 nM | 11.9 nM | > 3000 nM | 825 nM |  |  | > 10000 nM |  | 1600 nM |  | 2930 nM | > 10000 nM | 941 nM |  |  | 820 nM | > 1 nM |  |  |  | 290 nM | 37.1 nM | > 1000 nM |  |  | 381 nM | > 3000 nM | > 3000 nM | > 1000 nM
3 | EW-16 (Ewing's Sarcoma) | > 1000 nM | > 1000 nM | 837 nM | 726 nM | > 3000 nM | > 1000 nM | > 2000 nM | 581 nM | > 10000 nM | > 10000 nM | > 10000 nM | > 10000 nM | 2280 nM | > 10000 nM | 5720 nM | > 10000 nM | > 1000 nM | 71.9 nM | > 1 nM | > 10000 nM | > 10000 nM | > 3000 nM | > 1000 nM | 3.19 nM | > 1000 nM | > 10000 nM | > 300 nM |  |  |  | 
4 | G-402 (Other Solid Carcinomas) | > 1000 nM | > 1000 nM | 475 nM | 523 nM | > 3000 nM | 563 nM | 319 nM | 2700 nM | > 10000 nM | > 10000 nM | 7010 nM | 8690 nM | 1970 nM | > 10000 nM | 2420 nM | > 10000 nM | 98.5 nM | 123 nM | > 1 nM | > 10000 nM | > 10000 nM | > 3000 nM | 251 nM | 27 nM | > 1000 nM | 7960 nM | > 300 nM |  |  |  | 
5 | A253 (Head and Neck Carcinoma) | > 1000 nM | > 1000 nM | > 1000 nM | 110 nM | > 3000 nM | 746 nM | > 2000 nM | 1130 nM | > 10000 nM | > 10000 nM | 4570 nM | 4080 nM | > 10000 nM | > 10000 nM | 6730 nM | > 10000 nM | > 1000 nM | 177 nM | > 1 nM | > 10000 nM | > 10000 nM | > 3000 nM | 447 nM | 18.7 nM | > 1000 nM | > 10000 nM | > 300 nM |  |  |  | 
6 | AU565 (Breast Carcinoma) | > 1000 nM | > 1000 nM | > 1000 nM | 133 nM | > 3000 nM | > 1000 nM | > 2000 nM | 435 nM | > 10000 nM | 358 nM | > 10000 nM | 7950 nM | 9280 nM | > 10000 nM | 3150 nM | > 10000 nM | > 1000 nM | 634 nM | > 1 nM | > 10000 nM | 2740 nM | > 3000 nM | 68.3 nM | 14.5 nM | > 1000 nM | > 10000 nM | > 300 nM |  |  |  | 
7 | huH-1 (Hepatocellular Carcinoma) | > 1000 nM | > 1000 nM | > 1000 nM | 93 nM | > 3000 nM | > 1000 nM | > 2000 nM | 2520 nM | > 10000 nM | > 10000 nM | 5640 nM | > 10000 nM | > 10000 nM | > 10000 nM | > 10000 nM | > 10000 nM | > 1000 nM | > 1000 nM | > 1 nM | > 10000 nM | > 10000 nM | > 3000 nM | > 1000 nM | 68 nM | > 1000 nM | > 10000 nM | > 300 nM |  |  |  | 
8 | 5637 (Bladder Carcinoma) | > 1000 nM | > 1000 nM | 251 nM | 53.2 nM | > 3000 nM | > 1000 nM | 260 nM | 385 nM | > 10000 nM | 7560 nM | 6460 nM | > 10000 nM | 1010 nM | > 10000 nM | 8900 nM | > 10000 nM | 900 nM | > 1000 nM | > 1 nM | > 10000 nM | > 10000 nM | > 3000 nM | > 1000 nM | 37.9 nM | > 1000 nM | > 10000 nM | > 300 nM |  |  |  | 
